Results from patent publication US20190241569A1, “3-(ARYL OR HETEROARYL) METHYLENEINDOLIN-2-ONE DERIVATIVES AS INHIBITORS OF CANCER STEM CELL PATHWAY KINASES FOR THE TREATMENT OF CANCER” (Boston Biomedical, Inc., priority 2013, published 2019).

Legend:
Type in all cases: cell-based
ACHN = assay: Bulk cancer cells, Cell Titer-Glo 72 hours (Test Example 2); conditions: Homo sapiens, ACHN, 72 h
Protocol: (§1) Tubes of 3× drug (60 uM in 500 uL complete media) were prepared from 5 mM stock solutions in DMSO. […] To treat cells, 50 uL of drug from the dilution plate was removed and added to the cell plates. […] Cells were harvested 72 hours after drug addition using Cell Titer-Glo (Promega) and luminescence measured on a plate reader.

FaDu CSC = assay: Cancer stem cells, Cell Titer-Glo 72 hours (Test Example 3); conditions: Homo sapiens, FaDu, 72 h
A549 = assay: Bulk cancer cells, Cell Titer-Glo 72 hours (Test Example 2); conditions: Homo sapiens
Protocol: as §1

FaDu = assay: as above; conditions: Homo sapiens
Protocol: as §1

A549 CSC = assay: Cancer stem cells, Cell Titer-Glo 72 hours (Test Example 3); conditions: Homo sapiens

Compound	IC50 (ACHN) [µM]	IC50 (FaDu CSC) [µM]	IC50 (A549) [µM]	IC50 (FaDu) [µM]	IC50 (A549 CSC) [µM]
CCN(CC)CCNC(=O)c1c(C)[nH]c(/C=C2\C(=O)Nc3ccc(-c4nnc(-c5ccccc5)s4)cc32)c1C [Example 52]		0.23	48.9	2.15	
CCN(CC)CCNC(=O)c1c(C)[nH]c(/C=C2\C(=O)Nc3ccc(-c4nnc(-c5ccccc5)o4)cc32)c1C [Example 53]		21.5		8.23	
Cc1[nH]c(/C=C2\C(=O)Nc3ccc(-c4cnn(-c5ccccc5)c4C)cc32)c(C)c1C(=O)NCCN1CCCC1 [Example 28]		1.31		5.79	
Cc1[nH]c(/C=C2\C(=O)Nc3ccc(-c4cnn(-c5ccccc5)c4C)cc32)c(C)c1C(=O)N1CCOCC1 [Example 13]		37.2		6.76	
Cc1[nH]c(/C=C2\C(=O)Nc3ccc(-c4cnc(-c5ccccc5)[nH]4)cc32)c(C)c1C(=O)N1CCN(C)CC1 [Example 44]		13.2		5.54	
CCN(CC)CCNC(=O)c1c(C)[nH]c(/C=C2\C(=O)Nc3ccc(-c4cn(-c5ccccc5)nn4)cc32)c1C [Example 48]	4.73	2.9	4.88	6.74	
Cc1[nH]c(/C=C2\C(=O)Nc3ccc(-c4ccc(-c5ccccc5)s4)cc32)c(C)c1C(=O)NCCN1CCCC1 [Example 14]		1.64		4.44	
CC(=O)N1CCC(N2CCC(c3ccc4c(c3)/C(=C/c3[nH]c(C)c(C(=O)N5CCN(C)CC5)c3C)C(=O)N4)CC2)CC1 [Example 46]		15.6		23.2	
CCN(CC)CCNC(=O)c1c(C)[nH]c(/C=C2\C(=O)Nc3ccc(-n4cc(-c5ccccc5)nn4)cc32)c1C [Example 49]	7.16	3		6.58	
CCN(CC)CCNC(=O)c1c(C)[nH]c(/C=C2\C(=O)Nc3ccc(-c4ccnn4-c4ccc(C#N)cc4)cc32)c1C [Example 25]		4.96		17.3	
Cc1[nH]c(/C=C2\C(=O)Nc3ccc(-c4cnn(-c5ccccn5)c4)cc32)c(C)c1C(=O)N1CCN(C)CC1 [Example 31]		0.24	18.9	3.67	11.7
CCN(CC)CCNC(=O)c1c(C)[nH]c(/C=C2\C(=O)Nc3ccc(-c4nc(-c5ccccc5)n[nH]4)cc32)c1C [Example 50]		2.8		6.16	
Cc1[nH]c(/C=C2\C(=O)Nc3ccc(-c4ccnn4-c4ccccc4)cc32)c(C)c1C(=O)N1CCN(C)CC1 [Example 23]		11.5		4.55	
CCN(CC)CCNC(=O)c1c(C)[nH]c(/C=C2\C(=O)Nc3ccc(C4CCN(c5ncccn5)CC4)cc32)c1C [Example 43]		18.8		6.47	
CCN(CC)CCNC(=O)c1c(C)[nH]c(/C=C2\C(=O)Nc3ccc(-c4cnc(-c5ccccc5)[nH]4)cc32)c1C [Example 41]	20.6			5.34	
CCN(CC)CCNC(=O)c1c(C)[nH]c(/C=C2\C(=O)Nc3cnc(-c4csc(-c5ccccc5)n4)cc32)c1C [Example 120]		4.75		11.2	
CCN(CC)CCNC(=O)c1c(C)[nH]c(/C=C2\C(=O)Nc3ccc(C4CCN(c5ccccc5)CC4)cc32)c1C [Example 42]		1.3	16	1.89	
CCN(CC)CCNC(=O)c1ccc(/C=C2\C(=O)Nc3ccc(-c4csc(-c5ccccc5)n4)cc32)[nH]c1=O [Example 121]	3.31	6.15	3.64	3.1	
CCN(CC)CCNC(=O)c1c(C)[nH]c(/C=C2\C(=O)Nc3ccc(-c4csc(-c5ccc(Br)cc5)n4)cc32)c1C [Example 125]		1.33		3.68	
CCN(CC)CCNC(=O)c1c(C)[nH]c(/C=C2\C(=O)Nc3ccc(C4CCN(C5CCN(C(C)=O)CC5)CC4)cc32)c1C [Example 45]	4.8	1	29.6	3.32	
Cc1[nH]c(/C=C2\C(=O)Nc3ccc(-c4cnc(-c5ccccc5)o4)cc32)c(C)c1C(=O)N1CCN(C)CC1 [Example 18]		9.35		12.1	
CCN(CC)CCNC(=O)c1c(C)[nH]c(/C=C2\C(=O)Nc3ccc(-c4cnc(-c5ccccc5)o4)cc32)c1C [Example 17]	12.2	41.5		9.73	

Next, values leading:

IC50 (ACHN) [µM]	IC50 (FaDu CSC) [µM]	IC50 (A549) [µM]	IC50 (FaDu) [µM]	IC50 (A549 CSC) [µM]	Compound
24.9	4.49				O=C1Nc2ccc(-c3csc(-c4ccccc4)n3)cc2/C1=C/c1[nH]c(C(=O)O)c2c1CCCC2 [Example 163]
5.31	6.49		7.87		Cc1cc(C)c(/C=C2\C(=O)Nc3ccc(-c4csc(-c5ccccc5)n4)cc32)[nH]1 [Example 138]
9	27.2	9.76	20.8	16.2	Cc1cc(C)c(/C=C2\C(=O)Nc3ccc(-c4csc(-n5cccn5)n4)cc32)[nH]1 [Example 232]
25.2	17	16.6	11.4	20.2	Cc1cc(C)c(/C=C2\C(=O)Nc3ccc(-c4cnc5ccccn45)cc32)[nH]1 [Example 224]
0.39		40	13.5	13.2	CCOC(=O)c1cc(C)c(/C=C2\C(=O)Nc3ccc(-c4csc(-c5ccccc5)n4)cc32)[nH]1 [Example 161]
12.8		20.8			Cc1cc(C)c(/C=C2\C(=O)Nc3ccc(-c4cncnc4)cc32)[nH]1 [Example 212]
7.44					Cc1cc(C)c(/C=C2\C(=O)Nc3ccc(-c4ccc5ccccc5n4)cc32)[nH]1 [Example 214]
	1.55	12.5	5.23	8.66	Cc1cc(C)c(/C=C2\C(=O)Nc3ccc(-c4cnc5cccnn45)cc32)[nH]1 [Example 234]
10.6	0.09	7.89	25.8		Cc1cc(C)c(/C=C2\C(=O)Nc3ccc(-c4cnc5ccccc5n4)cc32)[nH]1 [Example 217]
14.7		16.1	26.8		Cc1cc(C)c(/C=C2\C(=O)Nc3ccc(-c4nc5ccccc5s4)cc32)[nH]1 [Example 235]
		18.4	23.5		Cc1cc(C)c(/C=C2\C(=O)Nc3ccc(-c4nccc5ccccc45)cc32)[nH]1 [Example 219]
		29.2	26.8		Cc1cc(C)c(/C=C2\C(=O)Nc3ccc(-c4ccc(C=O)cc4)cc32)[nH]1 [Example 262]
37.8				0.8	O=C1Nc2ccc(-c3csc(-c4ccncc4)n3)cc2/C1=C/c1cc2c([nH]1)CCCC2 [Example 156]
				1.65	Cc1[nH]c(/C=C2\C(=O)Nc3ccc(-c4csc(-c5ccccc5)n4)cc32)c(C)c1CCC(=O)O [Example 148]
		8.73	25.2		O=C1Nc2ccc(-c3csc(-c4ccncc4)n3)cc2/C1=C/c1ccc(N2CCNCC2)cc1 [Example 170]
		0.07			COc1ccc(-c2ccc3c(c2)/C(=C/c2[nH]c(C)cc2C)C(=O)N3)nc1 [Example 227]

IC50 (ACHN) [µM]	IC50 (FaDu CSC) [µM]	IC50 (A549) [µM]	IC50 (FaDu) [µM]	IC50 (A549 CSC) [µM]	Compound
6.75		0.72	2.42	32.5	CCN(CC)CCNC(=O)c1c(C)[nH]c(/C=C2\C(=O)Nc3ccc(-c4csc(C5CCNC5)n4)cc32)c1C (stereo not drawn) [Example 133]
1.16		16.3	21.8		COC(=O)c1c(C)[nH]c(/C=C2\C(=O)Nc3ccc(-c4csc(-c5ccccc5)n4)cc32)c1C [Example 141]
9.91					CCN(CC)CCNC(=O)c1[nH]c(/C=C2\C(=O)Nc3ccc(-c4csc(-c5ccccc5)n4)cc32)c2c1CCCC2 [Example 166]
14.6					Cc1[nH]c(/C=C2\C(=O)Nc3ccc(-c4csc(-c5ccncc5)n4)cc32)c(C)c1CCC(=O)O [Example 154]
12.3		6.06	5.96	30	CCN(CC)CCNC(=O)c1c(C)[nH]c(/C=C2\C(=O)Nc3ccc(-c4cnc(SC)cn4)cc32)c1C [Example 201]
		5.79	2.59		O=C1Nc2ccc(-c3csc(-c4ccccc4)n3)cc2/C1=C/c1ccc(N2CCNCC2)cc1 [Example 171]
24.8			19.8		COc1ccc(-c2ccc3c(c2)/C(=C/c2[nH]c(C)cc2C)C(=O)N3)c(C)c1 [Example 263]
20.6			19.4		Cc1cc(C)c(/C=C2\C(=O)Nc3cc(-c4cnc5ccccn45)ccc32)[nH]1 [Example 247]
	7.82		24.8		CCN(CC)CCNC(=O)c1c(C)[nH]c(/C=C2\C(=O)Nc3ccc(-c4csc(-c5cccc(Br)c5)n4)cc32)c1C [Example 127]
			18.4	0.98	Cc1cc(C)c(/C=C2\C(=O)Nc3cc(-c4ccncc4)ccc32)[nH]1 [Example 250]
21.8			22.4		Cc1cc(C)c(/C=C2\C(=O)Nc3ccc(-c4ccc(C(=O)c5ccccc5)cc4)cc32)[nH]1 [Example 260]
		18	5.31		CCN(CC)CCN1CCCc2[nH]c(/C=C3\C(=O)Nc4ccc(-c5csc(-c6ccccc6)n5)cc43)c(C)c2C1=O [Example 176]
25.3	25.2		26.1	28.7	Cc1cc(C)c(/C=C2\C(=O)Nc3ccc(-c4ncccn4)cc32)[nH]1 [Example 236]
		13.8	22.4	35.7	Cc1cc(C)c(/C=C2\C(=O)Nc3ccc(-c4cc(-c5ccccc5)ccn4)cc32)[nH]1 [Example 223]
	2.17		5.35		CCN(CC)CCNC(=O)c1c(C)[nH]c(/C=C2\C(=O)Nc3ccc(-c4cs/c(=N\c5ccccc5)n4C)cc32)c1C [Example 132]
